Data: BindingDB's records for doi:10.1016/j.bmc.2007.10.027 (Research Triangle Institute, 2008)
pKi: −log10 of the molar value.

Target: Neuronal acetylcholine receptor subunit alpha-4 (Rattus norvegicus, UniProt P09483)
Sequence (P09483 whole entry): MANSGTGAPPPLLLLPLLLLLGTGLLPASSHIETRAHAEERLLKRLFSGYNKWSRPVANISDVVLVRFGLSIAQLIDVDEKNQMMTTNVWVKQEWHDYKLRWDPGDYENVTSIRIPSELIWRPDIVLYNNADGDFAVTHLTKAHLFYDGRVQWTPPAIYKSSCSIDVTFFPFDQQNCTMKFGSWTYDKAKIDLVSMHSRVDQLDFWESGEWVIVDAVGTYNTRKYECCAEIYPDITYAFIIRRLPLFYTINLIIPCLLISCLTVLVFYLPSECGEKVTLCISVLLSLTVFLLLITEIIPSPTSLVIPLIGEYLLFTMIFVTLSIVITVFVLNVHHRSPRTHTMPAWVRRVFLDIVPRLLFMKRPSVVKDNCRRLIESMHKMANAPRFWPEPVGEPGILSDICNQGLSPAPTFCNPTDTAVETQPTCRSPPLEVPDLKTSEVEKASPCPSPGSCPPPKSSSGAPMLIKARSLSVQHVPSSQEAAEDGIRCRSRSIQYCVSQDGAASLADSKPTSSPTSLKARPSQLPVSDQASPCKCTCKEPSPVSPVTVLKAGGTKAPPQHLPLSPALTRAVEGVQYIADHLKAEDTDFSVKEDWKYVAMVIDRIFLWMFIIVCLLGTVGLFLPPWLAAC

Structure (SMILES) | pKi
Nc1cccc(-c2cc(C3CC4CCC3N4)cnc2F)c1 (racemic) [CAS_45263775] | 10.00
COc1cccc(-c2cc(C3CC4CCC3N4)cnc2F)c1 (racemic) [CAS_45266054] | 9.92
c1cncc(C2CC3CCC2N3)c1 (centres undefined) [2-(pyridin-3-yl)-7-aza-bicyclo[2.2.1]heptane] | 10.70
Fc1ncc(C2CC3CCC2N3)cc1-c1ccccc1 (centres undefined) [NSC_45263762] | 9.62
